Assay results from ChEMBL document CHEMBL5120896, “Hydroanthraquinones from Nigrospora sphaerica and Their Anti-inflammatory Activity Uncovered by Transcriptome Analysis” (J Nat Prod, 2022).
The source made the active and inactive calls. The rule behind the calls is not given here.

Assays:
RAW264.7 [1] = assay: Cytotoxicity against mouse RAW264.7 cells assessed as reduction in cell viability at 80 uM incubated for 24 hrs by MTT assay; assay type: toxicity, cell-based; conditions: raw264.7, 24 h
RAW264.7 [2] = assay: Anti-inflammatory activity against mouse RAW264.7 cells assessed as inhibition of LPS-induced NO production at 60 uM pretreated for 1 hr followed by incubation with LPS and measured after 24 hrs by Griess reagent based analysis; assay type: functional, cell-based; conditions: time 25.0 hrs
SW-620 = assay: Cytotoxicity against human SW-620 cells assessed as reduction in metabolically active cells by MTT assay; assay type: functional, cell-based
RAW264.7 [3] = assay: Anti-inflammatory activity against mouse RAW264.7 cells assessed as inhibition of LPS-induced ROS production at 10 to 40 uM pretreated for 1 hr followed by incubation with LPS for 24 hrs by DCFH-DA staining based fluorescence microscopy; assay type: functional, cell-based; conditions: dose 10-40 µM, time 25.0 hrs
RAW264.7 [4] = assay: Anti-inflammatory activity against mouse RAW264.7 cells assessed as inhibition of LPS-induced ROS production at 15 to 60 uM pretreated for 1 hr followed by incubation with LPS for 24 hrs by DCFH-DA staining based flow cytometry; assay type: functional, cell-based; conditions: dose 15-60 µM, time 25.0 hrs
Danio rerio = organism: Danio rerio; assay: Anti-inflammatory activity against Zebra fish embryo assessed as inhibition of LPS-induced ROS production at 5 uM pretreated with LPS followed by incubation with drug by fluorescence microscopy; assay type: functional, organism-based
RAW264.7 [5] = assay: Anti-inflammatory activity against LPS-activated mouse RAW264.7 cells assessed as reduction of IL-6 gene expression at 7.5 to 30 uM pretreated for 1 hr followed by incubation with LPS for 24 hrs by qRT-PCR analysis; assay type: functional, cell-based; conditions: dose 7.5-30 µM, time 25.0 hrs
RAW264.7 [6] = assay: Anti-inflammatory activity against LPS-activated mouse RAW264.7 cells assessed as reduction of IL-1 beta gene expression at 7.5 to 30 uM pretreated for 1 hr followed by incubation with LPS for 24 hrs by qRT-PCR analysis; assay type: functional, cell-based; conditions: dose 7.5-30 µM, time 25.0 hrs
RAW264.7 [7] = assay: Anti-inflammatory activity against LPS-activated mouse RAW264.7 cells assessed as reduction of TNF-alpha gene expression at 7.5 to 30 uM pretreated for 1 hr followed by incubation with LPS for 24 hrs by qRT-PCR analysis; assay type: functional, cell-based; conditions: dose 7.5-30 µM, time 25.0 hrs
RAW264.7 [8] = assay: Anti-inflammatory activity against LPS-activated mouse RAW264.7 cells assessed as reduction of NFkappaB p52 gene expression at 7.5 to 30 uM pretreated for 1 hr followed by incubation with LPS for 24 hrs by qRT-PCR analysis; assay type: functional, cell-based; conditions: dose 7.5-30 µM, time 25.0 hrs
RAW264.7 [9] = assay: Downregulation of NF-kappaB expression in LPS-activated mouse RAW264.7 cells at 7.5 to 30 uM pretreated for 1 hr followed by incubation with LPS for 24 hrs by western blot analysis; assay type: functional, cell-based; conditions: dose 7.5-30 µM, time 25.0 hrs
RAW264.7 [10] = assay: Downregulation of phospho-IKKalpha/beta expression in LPS-activated mouse RAW264.7 cells at 7.5 to 30 uM pretreated for 1 hr followed by incubation with LPS for 24 hrs by western blot analysis; assay type: functional, cell-based; conditions: dose 7.5-30 µM, time 25.0 hrs
RAW264.7 [11] = assay: Inhibition of NF-kappaB in mouse RAW264.7 cells assessed as inhibition of LPS-induced NF-kappaB p65 nuclear translocation at 15 to 60 uM pretreated for 1 hr followed by incubation with LPS for 24 hrs by immunofluorescence analysis; assay type: cell-based; conditions: dose 15-60 µM, time 25.0 hrs
RAW264.7 [12] = assay: Anti-inflammatory activity against mouse RAW264.7 cells assessed as inhibition of LPS-induced NO production pretreated for 1 hr followed by incubation with LPS and measured after 24 hrs by Griess reagent based analysis; assay type: functional, cell-based

COc1cc(O)c2c(c1O)C(O)C1C[C@](C)(O)[C@H](O)CC1C2=O (stereo partly drawn)
Activity (RAW264.7 [1]): Toxic

COc1cc(O)c2c(c1O)[C@H](OC)[C@H]1C[C@](C)(O)[C@H](O)[C@@H](O)[C@H]1C2=O
Activity (RAW264.7 [1]): Toxic

COc1cc(O)c2c(c1O)[C@H](O)[C@H]1C[C@](C)(O)[C@H](O)[C@@H](O)[C@@H]1C2=O [9ALPHA-HYDROXYHALOROSELLINIA A]
Activity (RAW264.7 [1]): Toxic

COc1cc(O)c2c(c1N)C(=O)C1=C(C[C@@H](O)[C@@](C)(O)C1)C2=O
Activity (RAW264.7 [2]): Active

COc1cc(O)c2c(c1O)[C@H](OC)[C@H]1C[C@](C)(O)[C@H](O)C[C@@H]1C2=O
Activity (RAW264.7 [2]): Active

C[C@]1(O)C[C@@]2(O)[C@H](C[C@H]1O)C(=O)c1c(O)ccc(O)c1[C@@H]2O
Activity (RAW264.7 [2]): Active

COc1cc(O)c2c(c1O)[C@@H](OC)[C@H]1C[C@](C)(O)[C@H](O)[C@@H](O)[C@@H]1C2=O
Activity (RAW264.7 [2]): Active

COc1cc(O)c2c(c1O)C(=O)[C@H]1C[C@](C)(O)[C@H](O)[C@@H](O)[C@@H]1C2=O
Activity (RAW264.7 [2]): Active

COc1cc(O)c2c(c1O)C(=O)C1=C(C[C@@H](O)[C@@](C)(O)C1)C2=O
Activity (RAW264.7 [1]): Toxic

COc1cc(O)c2c(c1O)[C@H](O)[C@H]1C[C@](C)(O)C[C@@H](O)[C@@H]1C2=O
Activity (RAW264.7 [1]): Toxic

COc1cc(O)c2c(c1O)[C@H](O)[C@H]1C[C@](C)(O)[C@H](O)C[C@H]1C2=O
Activity (RAW264.7 [2]): Active

COc1cc(O)c2c(c1O)[C@H]1O[C@]3(C)C[C@H]1[C@@H](C[C@@H]3O)C2=O
Activity (RAW264.7 [1]): Toxic

COC1=CC(=O)c2c(cc3c(c2O)[C@H](O)[C@@H](O)[C@@](C)(O)C3)C1=O
IC50 (SW-620): 13.7 µM
Activity (RAW264.7 [1]): Toxic

COc1cc(O)c2c(c1O)[C@@H](OC)[C@H]1C[C@](C)(O)[C@H](O)C[C@@H]1C2=O
Activity (RAW264.7 [2]): Active

COc1cc(O)c2c(c1O)[C@H](OC)[C@H]1C[C@](C)(O)[C@H](O)[C@@H](O)[C@@H]1C2=O
Activity (RAW264.7 [2]): Active

COc1cc(O)c2c(c1O)[C@H](O)[C@H]1C[C@](C)(O)[C@H](O)[C@@H](O)[C@H]1C2=O
Activity (RAW264.7 [2]): Active
Activity (RAW264.7 [3]): Active
Activity (RAW264.7 [4]): Active
Activity (Danio rerio): Active
Activity (RAW264.7 [5]): Active
Activity (RAW264.7 [6]): Active
Activity (RAW264.7 [7]): Active
Activity (RAW264.7 [8]): Active
inhibition (RAW264.7 [9]): Active
inhibition (RAW264.7 [10]): Active
inhibition (RAW264.7 [11]): Active
IC50 (RAW264.7 [12]): 7.5 µM
